“Also recorded” adds a separate entry of the source.
Assays:
[1] = system: primary cerebellar granule cells precursors (CGPs); assay: Cell cycle analysis and cell counts in cultured cerebellar granule cell precursors; type: cell-based, mouse; details: for fraction of cells in S-phase: CGP with mitogen, 50 uM, 24 hours, flow cytometric DNA content
Protocol: FIG. 9F: described below. […] Yellow circle indicates normally cycling cells.
Culture of Cerebellar Granule Cell Precursors: Cerebella were harvested from P6-P8 CD1 mouse pups and digested in Papain with DNase, and dissociated in PBS BSA with fire polished pipettes followed by a cell strainer. Granule cell precursors were then separated on a 35%/65% percoll step gradient at 1500 g for 12 minutes as previously described (Wechsler-Reya, supra (1999)). Cells were either transfected at this point or plated at 250K cells/well onto Poly-L-Lysine coated glass coverslips in 24 well plates in 330 uls of Neurobasal Media containing 2% B27 supplement, 1 mM sodium pyruvate, 2 mM glutamine, and 1% penicillin/streptomycin, supplemented with 2.5 ug/ml mouse recombinant Sonic Hedge Hog (R&D systems 461-5H-025) as noted in the text, above.
Cell counts: For immunocytochemistry, all cells in 10 random 40× fields were counted. For the stem cell ablation experiments we used stereo investigator to count all PBK/TOPK cells in the SEZ ventral to the anterior horn at the level of the anterior commissure bilaterally in 3 replicate animals. T-tests were performed in Microsoft Excel.

[2] = system: neural progenitors cultured from E12 mouse telencephalic germinal zones; assay: Cell number and cell cycle of attached E12 telencephalic neural progenitors in bFGF
Daoy cells = assay: Daoy medulloblastoma cell growth (total cell number); type: cell-based, human; details: cyclopamine alone or combined with MELK siRNA
Protocol: Transient Transfection. […] For transfection of plasmid vectors, the cells were incubated with reagents for 6 hours with the primary progenitor cells, and for 24 hours with N2a cells. […] Incubation with siRNA complex was 6 hours with primary cells and 24 hours with cell lines.
We then examined whether the effect of MELK siRNA is for cell survival or cell proliferation.
Propium iodide-labeled tumor populations were measured for cell death assay after treatment of siRNA for two days (e).

[3] = system: dividing GFAP positive cells; assay: Ganciclovir ablation in GFAP promoter HSV-TK transgenic mice, SEZ immunohistochemistry; type: in vivo, mouse; details: 21 days ganciclovir, vs non-transgenic controls
Excerpt: PBK/TOPK positive cells are mitotically active progenitors in vivo: The expression pattern in vitro as a mitotically active kinase, coupled with in vivo data, provided evidence that PBK/TOPK was expressed in several mitotically active progenitor cell populations in the central nervous system, but not in quiescent, slower cycling putative stem cells. To more conclusively establish PBK/TOPK expression in stem and progenitor cells in vivo, we examined PBK/TOPK in transgenic mice expressing the herpes simplex virus thymidine kinase gene (HSV-TK) under control of the GFAP promoter (see, e.g., Bush, T. G., et al., Neuron (1999) 23:297-308; Garcia, supra (2004)). Since HSV-TK phosphorylates the drug ganciclovir and phosphorylated ganciclovir kills cells at mitosis, when these mice are given ganciclovir, all dividing GFAP positive cells are killed. […] Three transgenic mice were treated for 21 days with ganciclovir followed by BrdU injections for two days, and then processed for immunohistochemistry. […] This finding provided direct in vivo evidence that PBK/TOPK positive cells arise from proliferating GFAP positive cells, consistent with PBK/TOPK being expressed exclusively by proliferating progenitor cells in the adult brain. […]
Cell counts: For immunocytochemistry, all cells in 10 random 40× fields were counted. […]

[4] = CGP, twenty-four hours of P38 inhibition

C[S+]([O-])c1ccc(-c2nc(-c3ccncc3)c(-c3ccc(F)cc3)[nH]2)cc1 (centres unmarked) [SB203580]
fraction of cells in S-phase [1]: reduces fraction of S-Phase cells; also recorded: dramatic decrease in the fraction of cells in S-phase
fraction of cells in S-phase ([1]; listed as sb203580): significant decrease in the number of cells re-entering S-phase
cell number in the absence of mitogen ([1]; CGP without mitogen treatment): no impact on cell number
number of NeuN positive cells [1, 4]: without significantly impacting; also recorded: without any impact
number of PBK/TOPK positive cells [1, 4]: reduces PBK/TOPK positive cells; also recorded: reduction in the number of the PBK/TOPK positive cells
total number of cells ([1]; proliferating neuronal progenitors): decrease in the total number of cells
cycling cells assessed by flow cytometry ([2]; in the presence of bFGF): decrease in cycling cells
DNA aneuploidy ([2]; long exposures or high doses, 48 hours at highest dose): resulted in DNA aneuploidy; also recorded: accumulation of DNA-aneuploid cells
cell number ([2]; varying doses, in the presence of bFGF): dose dependant decrease in proliferation; also recorded: dose dependant decrease in cell number

CC1=C2C[C@H]3[C@@H](CC=C4C[C@@H](O)CC[C@@]43C)[C@@H]2CC[C@]12O[C@@H]1C[C@H](C)CN[C@H]1[C@H]2C [cyclopamine]
Daoy cell growth / proliferation with shh-Gli1 pathway inhibitor (Daoy cells): inhibition of cell growth

Nc1nc(O)c2ncn(COC(CO)CO)c2n1 [ganciclovir]
Dcx positive cells in SEZ [3]: complete ablation
